# In BindingDB's records for doi:10.1074/jbc.M607913200 (Incyte, 2006):
# Biological target: T1, Tyrosine-protein phosphatase non-receptor type 1 [1-298] (Homo sapiens, UniProt P18031)
# T1 construct: 1-298
# T1 sequence (P18031 whole entry): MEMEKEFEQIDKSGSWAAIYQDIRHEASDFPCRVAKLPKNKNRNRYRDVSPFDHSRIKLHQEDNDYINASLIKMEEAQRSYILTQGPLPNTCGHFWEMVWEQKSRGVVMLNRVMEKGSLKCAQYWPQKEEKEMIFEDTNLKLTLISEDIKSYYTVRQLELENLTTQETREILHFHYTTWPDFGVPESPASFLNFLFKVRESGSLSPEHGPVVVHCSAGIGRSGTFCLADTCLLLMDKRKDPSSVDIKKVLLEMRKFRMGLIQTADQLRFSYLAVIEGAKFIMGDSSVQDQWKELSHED
# Assay: Phosphatase Inhibition Assay
Structure (SMILES),IC50 [nM],"IC50 (pH 7, 22 °C) [nM]"
"CN1CCOc2cc(S(=O)(=O)N[C@@H](Cc3ccc([C@@H]4CC(=O)NS4(=O)=O)cc3)c3nc4ccccc4[nH]3)ccc21 [N-[(1S)-1-(1H-benzoimidazol-2-yl)-2-[4-[(5S)-1,1,3-trioxo-1,2-thiazolidin-5-yl]phenyl]ethyl]-7-methyl-10-oxa-7-azabicyclo[4.4.0]deca-2,4,11-triene-3-sulfonamide]",,59
"CC(C)C(=O)N[C@@H](Cc1ccc(C2CC(=O)NS2(=O)=O)cc1)c1nc2ccccc2[nH]1 (stereo partly drawn) [N-[(1S)-1-(1H-1,3-benzodiazol-2-yl)-2-[4-(1,1,3-trioxo-1,2-thiazolidin-5-yl)phenyl]ethyl]-2-methylpropanamide]",3200,

# Continued by falling IC50, values first:
IC50 [nM],"IC50 (pH 7, 22 °C) [nM]",Structure (SMILES)
2600,,"CC(=O)N[C@@H](Cc1ccc(C2CC(=O)NS2(=O)=O)cc1)c1nc2ccccc2[nH]1 (stereo partly drawn) [N-[(1S)-1-(1H-1,3-benzodiazol-2-yl)-2-[4-(1,1,3-trioxo-1,2-thiazolidin-5-yl)phenyl]ethyl]acetamide]"
120,,"O=C1CC(c2ccc(C[C@H](NS(=O)(=O)c3ccccc3)c3nc4ccccc4[nH]3)cc2)S(=O)(=O)N1 (stereo partly drawn) [N-[(1S)-1-(1H-1,3-benzodiazol-2-yl)-2-[4-(1,1,3-trioxo-1,2-thiazolidin-5-yl)phenyl]ethyl]benzenesulfonamide]"
75,,"O=C1CC(c2ccc(C[C@H](NS(=O)(=O)c3ccccc3)c3nc4ccccc4[nH]3)cc2Cl)S(=O)(=O)N1 (stereo partly drawn) [N-[(1S)-1-(1H-1,3-benzodiazol-2-yl)-2-[3-chloro-4-(1,1,3-trioxo-1,2-thiazolidin-5-yl)phenyl]ethyl]benzenesulfonamide]"
